# Reference: BindingDB's records for doi:10.1021/jm030905y (Vrije Universiteit, 2003)
# pKi: −log10 of the molar value.
# Biological target: Histamine H4 receptor (Homo sapiens, UniProt Q9H3N8)
# Experiment: Inhibitory activity measured by [3H]- N alpha- methyl-histamine binding to membranes of SK-N-MC cells expressing the human Histamine H4 receptor
# Sequence of Histamine H4 receptor (Q9H3N8 whole entry): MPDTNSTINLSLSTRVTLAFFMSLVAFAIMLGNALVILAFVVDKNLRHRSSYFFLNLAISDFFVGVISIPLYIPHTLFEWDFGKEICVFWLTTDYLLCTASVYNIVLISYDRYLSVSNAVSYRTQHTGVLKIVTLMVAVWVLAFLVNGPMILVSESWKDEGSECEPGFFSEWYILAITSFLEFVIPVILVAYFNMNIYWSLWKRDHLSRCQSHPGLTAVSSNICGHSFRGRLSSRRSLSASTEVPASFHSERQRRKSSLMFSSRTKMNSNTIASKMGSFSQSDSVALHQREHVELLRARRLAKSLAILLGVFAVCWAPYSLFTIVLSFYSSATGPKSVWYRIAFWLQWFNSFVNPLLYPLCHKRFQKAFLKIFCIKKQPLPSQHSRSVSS
row,Structure (SMILES),pKi
1,C[C@@H](N)Cc1c[nH]cn1 [CHEBI:73337],6.62
2,NCCCc1c[nH]cn1 [Homohistamine],7.46
